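Test compounds were applied to cells in 96-well plates for 48 hours at 5 doses. The concentration for full growth arrest is given as TGI.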 A value given as a limit tells only on which side of the number the result lay.

We go through 14 compounds from PubChem BioAssay (NCI).

Test systems include HS 578T breast; BT-549 breast; NCI/ADR-RES ovarian; UACC-62 melanoma; SN12C renal; RXF 393 renal; UO-31 renal; HL-60(TB) leukemia; MDA-MB-435; A549 NSCLC.
What all share (assay): inhibition of tumour cell growth, NCI panel, 48 h

Consider `CCCCSC1=N/C(=C\c2ccccc2O)C(Cl)=N1`, for which the TGI with HS 578T breast, with BT-549 breast, with NCI/ADR-RES ovarian, in the assay on UACC-62 melanoma, in the assay with SN12C renal and in the assay on RXF 393 renal was greater than 100 µM each time. Also, the TGI in the assay on UO-31 renal, in the assay on HL-60(TB) leukemia, with MDA-MB-435 and in the assay with A549 NSCLC was greater than 100 µM throughout.
Turning to `CC(=O)OC/C=C/Cn1nc(Br)c(=O)[nH]c1=O`, the TGI in the assay on HS 578T breast, in the assay with BT-549 breast, in the assay with NCI/ADR-RES ovarian, in the assay on UACC-62 melanoma, with SN12C renal and in the assay on RXF 393 renal was greater than 100 µM in each case. For the same compound, the TGI in the assay on UO-31 renal, with HL-60(TB) leukemia, in the assay with MDA-MB-435 and with A549 NSCLC was greater than 100 µM in each case.
As to `O=C(CCc1ccccc1)NCCc1ccc(O)c(O)c1`, the TGI with HS 578T breast is greater than 100 µM; with BT-549 breast it was greater than 49.8 µM; with NCI/ADR-RES ovarian, greater than 100 µM; with UACC-62 melanoma it was greater than 100 µM; in the assay on SN12C renal it was greater than 69.5 µM; in the assay on RXF 393 renal, greater than 100 µM. The TGI is 49.2 µM in the assay on UO-31 renal, 14.3 µM with HL-60(TB) leukemia, 29.4 µM in the assay on MDA-MB-435 and greater than 100 µM in the assay with A549 NSCLC.
Take `COc1ccc(-c2cc(=O)c3cc(OC)c(OC)cc3[nH]2)cc1OC`: the TGI with HS 578T breast, in the assay with BT-549 breast, in the assay on NCI/ADR-RES ovarian, in the assay with UACC-62 melanoma, in the assay with SN12C renal and in the assay with RXF 393 renal was greater than 100 µM throughout. For the same compound, the TGI in the assay with UO-31 renal, with MDA-MB-435 and with A549 NSCLC was greater than 100 µM in each case.
Consider `CCCSC1=N/C(=C\c2ccco2)C(=O)N1`, for which the TGI in the assay on HS 578T breast, in the assay with BT-549 breast, in the assay with NCI/ADR-RES ovarian, in the assay with UACC-62 melanoma, in the assay with SN12C renal and with RXF 393 renal was greater than 100 µM each time. Besides, the TGI in the assay on UO-31 renal, in the assay with MDA-MB-435 and in the assay on A549 NSCLC was greater than 100 µM in each case.
As for `CC(C)=C[C@@H]1C[C@H](C)[C@H]2CC[C@H](C)[C@H]3C(=O)C(O)=C(C)C(=O)[C@]123`, the TGI with HS 578T breast, in the assay on BT-549 breast, in the assay with NCI/ADR-RES ovarian, in the assay with UACC-62 melanoma, in the assay with SN12C renal and in the assay with UO-31 renal was greater than 100 µM each time. Besides, the TGI with HL-60(TB) leukemia, with MDA-MB-435 and with A549 NSCLC was greater than 100 µM each time.
Turning to `Cn1c(=O)c2c(n(C)c1=O)n1c(=O)c3ccccc3nc1n2C`, the TGI with HS 578T breast, in the assay with BT-549 breast, with NCI/ADR-RES ovarian, with UACC-62 melanoma, with SN12C renal and in the assay on RXF 393 renal was greater than 100 µM throughout. Besides, the TGI with UO-31 renal, in the assay with MDA-MB-435 and in the assay on A549 NSCLC was greater than 100 µM in each case.
On to `FC(F)(Sc1nc2ccccc2[nH]1)c1nc2ccccc2o1`, for which the TGI with HS 578T breast, in the assay with BT-549 breast, with NCI/ADR-RES ovarian, with UACC-62 melanoma, in the assay with SN12C renal and in the assay with RXF 393 renal was greater than 100 µM throughout. In addition, the TGI in the assay with UO-31 renal, with MDA-MB-435 and in the assay on A549 NSCLC was greater than 100 µM each time.
As for `COc1ccc(-c2cc(-c3ccc(Nc4ccnc5cc(C(F)(F)F)ccc45)cc3)nc(N)c2C#N)c2ccccc12`, the TGI with HS 578T breast, with BT-549 breast, in the assay on NCI/ADR-RES ovarian, in the assay on UACC-62 melanoma, in the assay with RXF 393 renal and in the assay with UO-31 renal was greater than 100 µM throughout. The TGI in the assay with HL-60(TB) leukemia, with MDA-MB-435 and in the assay with A549 NSCLC was greater than 100 µM throughout.
`Nc1nc2c(c(-c3ccc(F)cc3)n1)COC/C2=C\c1ccc(F)cc1`: the TGI in the assay with HS 578T breast, in the assay with BT-549 breast, in the assay with NCI/ADR-RES ovarian, in the assay with UACC-62 melanoma, in the assay on SN12C renal and with RXF 393 renal was greater than 100 µM in each case. Further, the results for the TGI in the assay with UO-31 renal, with HL-60(TB) leukemia and in the assay on MDA-MB-435 were 50 µM, greater than 100 µM and greater than 100 µM, respectively.
Take `O=C1Cc2c([nH]c3c(Br)cccc23)-c2ccccc2N1`: the TGI in the assay on HS 578T breast, in the assay on BT-549 breast, with NCI/ADR-RES ovarian, in the assay on UACC-62 melanoma, in the assay on SN12C renal and with UO-31 renal was greater than 100 µM each time. The values for the TGI with HL-60(TB) leukemia, with MDA-MB-435 and in the assay with A549 NSCLC were 73.8 µM, greater than 100 µM and greater than 100 µM, respectively.
`CCOC(=O)C1(NC(=O)OC(C)(C)C)CCc2[nH]oc(=O)c2C1` (centres undefined): the TGI in the assay on HS 578T breast, in the assay on BT-549 breast, in the assay with NCI/ADR-RES ovarian, with UACC-62 melanoma, with SN12C renal and in the assay on UO-31 renal was greater than 100 µM throughout. Moreover, the TGI in the assay with HL-60(TB) leukemia, in the assay with MDA-MB-435 and in the assay with A549 NSCLC was greater than 100 µM in each case.
On to `O=C(C[N+]1(c2ccccc2)CCOCC1)c1ccccc1`, for which the TGI in the assay with HS 578T breast, in the assay with BT-549 breast, in the assay with NCI/ADR-RES ovarian, in the assay on UACC-62 melanoma, with SN12C renal and with RXF 393 renal was greater than 100 µM in each case. In addition, the TGI with UO-31 renal, with MDA-MB-435 and with A549 NSCLC was greater than 100 µM in each case.
`Nc1nc(N)c2ncn(Cc3ccccc3)c2n1`: the TGI with HS 578T breast, in the assay on BT-549 breast, in the assay on NCI/ADR-RES ovarian, in the assay with UACC-62 melanoma, with SN12C renal and with RXF 393 renal was greater than 100 µM in each case. For the same compound, the TGI with UO-31 renal, with MDA-MB-435 and with A549 NSCLC was greater than 100 µM throughout.
